Experiment [1] concerns the target T1, CAIX (Homo sapiens, UniProt Q16790). Kind of experiment: Stopped-flow CO2 hydration, CAIX activity before and after dialysis. The class given is biochemical. Conditions: for CAIX catalytic activity after 32 hours of dialysis: […] CAIX incubated 2 h with 15 μM AV19-37 or 100 μM AV19-36, dialyzed in Tris buffer pH 7. As to the method:
A—CAIX incubated for 2 hours with compounds and the CO2 hydration was measured. B—CAIX was incubated for 2 hours with the compound and then the complex was dialyzed for 32 hours in Tris buffer (pH 7.0). Black curves represent CAIX catalyzed CO2 hydration reaction. Grey curves are spontaneous CO2 hydration without the CA enzyme.
CO2 hydration velocities were measured by recording absorbance of phenol red (final concentration 50 μM) at 557 nm by using Applied Photophysics SX.18 MV-R stopped-flow spectrometer.

The target in experiment [2] is T1, CAIX. In words: Isothermal titration calorimetry (ITC) binding to CAIX. Conditions: pH 7.0, TRIS chloride buffer, 37° C., FIG. 1D. As to the method: A—Raw data of CAIX unfolding in the presence of different compound concentrations. B—dependence of CAIX melting temperature Tm on ligand concentration. […] C—raw ITC curve at pH 7.0, TRIS chloride buffer, at 37° C. D—Integrated ITC curve.
In general terms: ITC needs no label: the signal is the heat of the interaction.

The target in experiment [3] is CAIII (Homo sapiens, UniProt P07451). Kind of experiment: Mass spectrometry (Q-TOF) of covalent modification of CAIII. The note with it: CAIII in the presence of ligand. The experiment is classed as binding.

Each structure is given as a SMILES string.

The results in this text go back to patent publication US20250066291A1, “TARGETED COVALENT INHIBITORS FOR CARBONIC ANHYDRASES” (VILNIUS UNIVERSITY, priority 2023, published 2025).

Sequence of CAIII (P07451 whole entry): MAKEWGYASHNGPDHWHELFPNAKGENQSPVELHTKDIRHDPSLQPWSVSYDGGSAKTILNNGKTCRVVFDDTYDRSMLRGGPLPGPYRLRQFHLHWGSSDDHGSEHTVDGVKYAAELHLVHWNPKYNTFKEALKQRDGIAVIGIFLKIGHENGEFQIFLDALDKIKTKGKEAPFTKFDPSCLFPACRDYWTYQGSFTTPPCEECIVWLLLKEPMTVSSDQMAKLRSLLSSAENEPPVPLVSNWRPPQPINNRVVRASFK

For `CC(=O)OCCSc1c(F)c(F)c(S(N)(=O)=O)c(F)c1F` [AV19-36, 2-((2,3,5,6-tetrafluoro-4-sulfamoylphenyl)thio)ethyl acetate], the “CAIX catalytic activity after 32 hours of dialysis” value in experiment [1] is reported as “partially restored its catalytic activity”.

For the compound `CC(=O)OCCS(=O)(=O)c1c(F)c(F)c(S(N)(=O)=O)c(F)c1NC1CCCCCCC1` [AV19-37, 2-((2-(cyclooctylamino)-3,5,6-trifluoro-4-sulfamoylphenyl)sulfonyl)ethyl acetate], in experiment [2], the compound binding stoichiometry is recorded as about 1. The “CAIX catalytic activity after 32 hours of dialysis” value in experiment [1] was “not restored”. Also, in experiment [1] ([…] CAIX, 15 μM compound, CO2 hydration, 25° C., pH 7.5), the “CAIX catalytic activity after 2 hours of incubation with compound” value is “lost its catalytic activity”. Besides, in experiment [3], the “covalent modification by MS” value was “did not show a covalent modification”.
